Laboratory results from the supplement of paper PMC10307832.

Key:
Assay in all cases: relative viability (nuclei count vs DMSO), 5 days (fraction); higher = more cells survive
Serdemetan + Palbociclib = compound: c1ccc2c(CCNc3ccc(Nc4ccncc4)cc3)c[nH]c2c1 [Serdemetan] + CC(=O)c1c(C)c2cnc(Nc3ccc(N4CCNCC4)cn3)nc2n(C2CCCC2)c1=O [Palbociclib] (partner 0.5 µM)
Outline: (§1)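 Cells from lung cancer lines were seeded into 1536-well plates and, one day later, dosed by pin tool. Treatments were either a single drug or a fixed dose of an anchor drug with five library-drug doses (not always all listed) in √10 steps. After 5 days, nuclei were stained in a one-step fixation (final 0.05% Triton X-100, 1% formaldehyde, 1 ug/ml Hoechst) and counted on 4× images, and relative viability is the treated-to-vehicle nuclei ratio, as the median of duplicate plates.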

Serdemetan + Linsitinib = compound: c1ccc2c(CCNc3ccc(Nc4ccncc4)cc3)c[nH]c2c1 [Serdemetan] + C[C@]1(O)C[C@@H](c2nc(-c3ccc4ccc(-c5ccccc5)nc4c3)c3c(N)nccn32)C1 [Linsitinib] (partner 1 µM)
Outline: as §1

Serdemetan + Navitoclax = compound: c1ccc2c(CCNc3ccc(Nc4ccncc4)cc3)c[nH]c2c1 [Serdemetan] + CC1(C)CCC(c2ccc(Cl)cc2)=C(CN2CCN(c3ccc(C(=O)NS(=O)(=O)c4ccc(N[C@H](CCN5CCOCC5)CSc5ccccc5)c(S(=O)(=O)C(F)(F)F)c4)cc3)CC2)C1 [Navitoclax] (partner 0.5 µM)
Outline: as §1

Selisistat + Tozasertib = compound: C1CC(C2=C(C1)C3=C(N2)C=CC(=C3)Cl)C(=O)N [Selisistat] + Cc1cc(Nc2cc(N3CCN(C)CC3)nc(Sc3ccc(NC(=O)C4CC4)cc3)n2)n[nH]1 [Tozasertib] (partner 0.1 µM)
Outline: as §1

Cell Line	relative viability (Serdemetan + Palbociclib; first compound 0.04 µM)	relative viability (Serdemetan + Palbociclib; first compound 0.1265 µM)	relative viability (Serdemetan + Palbociclib; first compound 0.4 µM)	relative viability (Serdemetan + Palbociclib; first compound 1.265 µM)	relative viability (Serdemetan + Palbociclib; first compound 4 µM)	relative viability (Serdemetan + Linsitinib; first compound 0.04 µM)	relative viability (Serdemetan + Linsitinib; first compound 0.1265 µM)	relative viability (Serdemetan + Linsitinib; first compound 0.4 µM)	relative viability (Serdemetan + Linsitinib; first compound 1.265 µM)	relative viability (Serdemetan + Linsitinib; first compound 4 µM)	relative viability (Serdemetan + Navitoclax; first compound 0.04 µM)	relative viability (Serdemetan + Navitoclax; first compound 0.1265 µM)	relative viability (Serdemetan + Navitoclax; first compound 0.4 µM)	relative viability (Serdemetan + Navitoclax; first compound 1.265 µM)	relative viability (Serdemetan + Navitoclax; first compound 4 µM)	relative viability (Selisistat + Tozasertib; first compound 0.4 µM)	relative viability (Selisistat + Tozasertib; first compound 1.265 µM)	relative viability (Selisistat + Tozasertib; first compound 4 µM)	relative viability (Selisistat + Tozasertib; first compound 12.65 µM)	relative viability (Selisistat + Tozasertib; first compound 40 µM)
NCI-H838	0.212	0.221	0.243	0.232	0.23	0.995	1.04	0.961	0.989	1.17	1.11	1.14	1.08	1.12	1.32	0.238	0.278	0.245	0.26	0.249
NCI-H1755	0.45	0.42	0.445	0.344	0.39	0.956	0.941	0.881	0.556	0.653	0.973	0.976	0.867	0.527	0.448	0.635	0.613	0.621	0.525	0.61
HCC-78	0.449	0.391	0.494	0.437	0.47	0.505	0.525	0.542	0.499	0.257	0.758	0.898	0.774	0.756	0.384	0.486	0.418	0.398	0.407	0.424
IA-LM						0.549	0.679	0.537	0.394	0.388	0.822	0.648	0.692	0.341	0.239					
NCI-H322M	0.491	0.488	0.474	0.327	0.463	0.923	0.955	0.827	0.863	0.836	1.05	1.21	1.12	1.43	1.06	0.552	0.475	0.455	0.469	0.495
NCI-H3122	0.192	0.227	0.224	0.205	0.214	1.09	0.946	1.05		1.07	0.975	0.951	1		1.04	0.367	0.352	0.347	0.34	0.372
NCI-H650	0.332	0.365	0.344	0.282	0.287	0.681	0.922	0.883	0.737	0.688						0.783	0.674	0.717	0.622	0.66
NCI-H1792	0.661	0.7	0.596	0.395	0.56	0.565	0.527	0.557	0.378	0.231	0.655	0.587	0.551	0.355	0.476					
ChaGo-K-1	0.864	0.746	0.488	0.271	0.296							1.15	0.925	0.681	0.899	0.213	0.214	0.232	0.186	0.245
NCI-H522	1.01	0.954	0.899	0.681	0.856											0.569	0.593	0.509	0.608	0.52
NCI-H1299						0.923	0.999	0.969	0.777	0.669	1.02	1.03	1.02	0.942	0.835					
NCI-H1650	0.318	0.275	0.282	0.257	0.262						1.02	1.19	1.19	1.18	0.722	0.355	0.301	0.404	0.34	0.334
NCI-H1648		0.233	0.242	0.219	0.212											0.511	0.513	0.609	0.395	0.64
NCI-H596						1.14	1.04	0.789	0.623	0.541	0.967	0.922	0.741	0.465	0.34	0.848	0.753	0.898	0.835	0.914
NCI-H2342	0.528	0.494	0.508	0.481	0.489											0.504	0.502	0.504	0.502	0.57
SW 900	0.615	0.58	0.59	0.451	0.361											0.677	0.563	0.589	0.567	0.559
A549						0.595	0.578	0.631	0.42	0.179	1.2	1.15	1.19	0.598	0.208					
NCI-H2170	0.362	0.428	0.411	0.301	0.382						0.591	0.705	0.52	0.554	0.601	0.732	0.592	0.703	0.629	0.8
NCI-H661	0.387	0.416	0.411	0.382	0.393	0.521	0.635	0.606	0.563	0.418						0.353	0.354	0.379	0.352	0.352
NCI-H1563						1.13	1.03	0.94	1.06	0.759										
ABC-1	0.553	0.586	0.694	0.611	0.459	0.85	0.87	0.738	0.6	0.489						0.184	0.179	0.17	0.176	0.149
LCLC-103H	0.479	0.474	0.453	0.389	0.419	0.81	1.06	1.09	0.918	0.778						0.435	0.515	0.494	0.47	0.565
